According to US12534450B2, “Methods and compositions for targeting PD-L1” (Aligos Therapeutics, Inc., priority 2021, dated 2026):

What follows are compounds tested against PD-1/PD-L1 PPI (Homo sapiens, UniProt Q9NZQ7) (assay: PDL1/PD1 Binding Assay). Settings: PDL1-6×His 0.3 nM, PD1-Fc-Avi-Biotin 2.5 nM, Acceptor/Donor beads, Envision reader.
Description: Compounds to be tested were serially diluted in DMSO, and further diluted in assay buffer (25 mM Hepes pH 7.4, 150 mM NaCl, 0.005% Tween 20, BSA 0.01%). Diluted compounds were added to the wells with final concentration of DMSO at 1%. PDL1-6×His protein was added to the wells, mixed well with compound. The plates were incubated for 30 min at room temperature. PD1-Fc-Avi-Biotin protein was added to the wells. Final concentration of PDL1 and PD1 protein is 0.3 nM and 2.5 nM, respectively. After a binding time of 30 min at room temperature, Anti-6×His Acceptor beads (final concentration 20 ug/ml) were added to the wells, and the incubation continued for 1 h. Streptavidin Donor beads (final concentration 20 ug/mL) were added at reduced light. The plates were sealed with foil and incubated in the dark for additional 1 h or overnight before reading on an Envision reader. The IC50 values were determined by fitting the curves using a four-parameter equation in Graphpad Prism 8.

Sequence of PD-1/PD-L1 PPI (Q9NZQ7 19-238 limits assumed): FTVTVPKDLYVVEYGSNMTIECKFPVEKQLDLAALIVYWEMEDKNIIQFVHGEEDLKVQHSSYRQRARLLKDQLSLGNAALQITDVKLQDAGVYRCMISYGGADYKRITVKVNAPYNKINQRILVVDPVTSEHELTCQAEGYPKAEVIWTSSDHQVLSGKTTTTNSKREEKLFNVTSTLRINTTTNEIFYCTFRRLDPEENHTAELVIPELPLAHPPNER

`COc1nc(-c2cccc(-c3cccc(NC(=O)c4cn(C)c(=O)n(C)c4=O)c3Cl)c2Cl)cc2c1[C@H](N1CC(OC)C1)CC2` (single isomer, unassigned) [Compound A-25] and `COc1nc(-c2cccc(-c3cccc(NC(=O)c4cn(C)c(=O)n(C)c4=O)c3Cl)c2Cl)cc2c1[C@H](N1CC(O)C1)CC2` (single isomer, unassigned) [Compound A-27] cannot be ordered by IC50: ≤ 10 nM for the first, ≤ 10 nM for the second.

`COc1nc(-c2cccc(-c3cccc(NC(=O)c4cn(C)c(=O)n(C)c4=O)c3C)c2Cl)cc2c1[C@H](N1CC(O)C1)CC2` (single isomer, unassigned) [Compound A-28] and `COc1nc(-c2cccc(-c3cccc(NC(=O)c4cn(C)c(=O)n(C)c4=O)c3C)c2C)cc2c1[C@@H](N1CC(O)C1)CC2` (single isomer, unassigned) [Compound A-79] cannot be ordered by IC50: ≤ 10 nM for the first, 10 to 100 nM for the second.

`COc1nc(-c2cccc(-c3cccc(NC(=O)c4cn(C)c(=O)n(C)c4=O)c3Cl)c2Cl)cc2c1[C@@H](N[C@@H]1CCOC[C@@H]1O)CC2` (single isomer, unassigned) [Compound A-29] and `COc1nc(-c2cccc(-c3cccc(NC(=O)c4cn(C)c(=O)n(C)c4=O)c3Cl)c2Cl)cc2c1[C@H](N[C@@H]1CCOC[C@@H]1O)CC2` (single isomer, unassigned) [Compound A-30] cannot be ordered by IC50: ≤ 10 nM for the first, ≤ 10 nM for the second.

`COc1nc(-c2cccc(-c3cccc(NC(=O)c4cn(C)c(=O)n(C)c4=O)c3Cl)c2C)cc2c1[C@H](N[C@@H]1CCOC[C@@H]1O)CC2` (single isomer, unassigned) [Compound A-31] and `COc1nc(-c2cccc(-c3cccc(NC(=O)c4cn(C)c(=O)n(C)c4=O)c3Cl)c2C)cc2c1[C@@H](N[C@@H]1CCOC[C@@H]1O)CC2` (single isomer, unassigned) [Compound A-39] cannot be ordered by IC50: ≤ 10 nM for the first, ≤ 10 nM for the second.

`COc1nc(-c2cccc(-c3cccc(NC(=O)c4cn(C)c(=O)n(C)c4=O)c3C)c2Cl)cc2c1[C@H](N[C@@H]1CCOC[C@@H]1O)CC2` (single isomer, unassigned) [Compound A-33] and `COc1nc(-c2cccc(-c3cccc(NC(=O)c4cn(C)c(=O)n(C)c4=O)c3C)c2Cl)cc2c1[C@@H](N[C@@H]1CCOC[C@@H]1O)CC2` (single isomer, unassigned) [Compound A-40] cannot be ordered by IC50: ≤ 10 nM for the first, ≤ 10 nM for the second.

`COc1nc(-c2cccc(-c3cccc(NC(=O)c4cn(C)c(=O)n(C)c4=O)c3C)c2C)cc2c1[C@@H](N[C@@H]1CCOC[C@@H]1O)CC2` (single isomer, unassigned) [Compound A-41] and `COc1nc(-c2cccc(-c3cccc(NC(=O)c4cn(C)c(=O)n(C)c4=O)c3C)c2F)cc2c1[C@@H](N[C@@H]1CCOC[C@@H]1O)CC2` (single isomer, unassigned) [Compound A-42] cannot be ordered by IC50: ≤ 10 nM for the first, ≤ 10 nM for the second.

`COc1nc(-c2cccc(-c3cccc(NC(=O)c4cn(C)c(=O)n(C)c4=O)c3C)c2C)cc2c1[C@@H](NC[C@@H]1CCC(=O)N1)CO2` (single isomer, unassigned) [Compound A-49] and `COc1nc(-c2cccc(-c3cccc(NC(=O)c4cn(C)c(=O)n(C)c4=O)c3C)c2C)cc2c1[C@H](N1CC(O)C1)CC2` (single isomer, unassigned) [Compound A-80] cannot be ordered by IC50: ≤ 10 nM for the first, ≤ 10 nM for the second.

`COc1nc(-c2cccc(-c3cccc(NC(=O)c4cn(C)c(=O)n(C)c4=O)c3C)c2Cl)cc2c1[C@H](N1CC3(CN(C(C)=O)C3)C1)CC2` (single isomer, unassigned) [Compound A-72] and `COc1nc(-c2cccc(-c3cccc(NC(=O)c4nn(C)c(=O)n(C)c4=O)c3C)c2C)cc2c1[C@@H](N[C@@H]1CCOC[C@@H]1O)CC2` (single isomer, unassigned) [Compound A-75] cannot be ordered by IC50: ≤ 10 nM for the first, ≤ 10 nM for the second.

For `COc1nc(-c2cccc(-c3cc(F)cc(NC(=O)c4nn(C)c(=O)n(C)c4=O)c3C)c2C)cc2c1[C@@H](N[C@@H]1CCOC[C@@H]1O)CC2` (single isomer, unassigned) [Compound A-74], the IC50 was ≤ 10 nM.

The compounds below were run on PD-1/PD-L1 interaction (assay: PD-1/PD-L1 NFAT Reporter Assay (co-culture of Jurkat T cells overexpressing PD-1 and PD-L1 expressing CHO cells)). Settings: Homo sapiens, Jurkat, 6 h, co-culture 6 hrs at 37° C., NFAT-mediated luciferase activity.
Type: cell-based
Description: Blocking the PD-1/PD-L1 interaction will release the inhibitory signal and results in TCR signaling and NFAT-mediated luciferase activity.
CHO cells expressing surface-bound anti-CD3 antibodies and PD-L1 were first seeded overnight and treated with the compounds. Jurkat cells overexpressing PD-1 and a luciferase construct under NFAT promoter were then immediately seeded on the monolayer of CHO cells. The co-culture was then incubated for 6 hrs at 37° C. Luciferase activity was assessed by adding the ONE-Glo reagent and measuring luminescence with a plate reader. EC50 values were determined from the fit of the dose-response curves.

`COc1nc(-c2cccc(-c3cccc(NC(=O)c4cn(C)c(=O)n(C)c4=O)c3Cl)c2Cl)cc2c1[C@H](N1CC(OC)C1)CC2` (single isomer, unassigned) [Compound A-25] and `COc1nc(-c2cccc(-c3cccc(NC(=O)c4cn(C)c(=O)n(C)c4=O)c3Cl)c2Cl)cc2c1[C@H](N1CC(O)C1)CC2` (single isomer, unassigned) [Compound A-27] cannot be ordered by EC50: ≤ 10 nM for the first, ≤ 10 nM for the second.

Compared with `COc1nc(-c2cccc(-c3cccc(NC(=O)c4cn(C)c(=O)n(C)c4=O)c3C)c2Cl)cc2c1[C@H](N1CC(O)C1)CC2` (single isomer, unassigned) [Compound A-28], `COc1nc(-c2cccc(-c3cccc(NC(=O)c4cn(C)c(=O)n(C)c4=O)c3C)c2C)cc2c1[C@@H](N1CC(O)C1)CC2` (single isomer, unassigned) [Compound A-79] is higher in EC50: ≤ 10 nM for the first, > 5000 nM for the second.

First: COc1nc(-c2cccc(-c3cccc(NC(=O)c4cn(C)c(=O)n(C)c4=O)c3Cl)c2Cl)cc2c1[C@@H](N[C@@H]1CCOC[C@@H]1O)CC2 (single isomer, unassigned) [Compound A-29]
Second: COc1nc(-c2cccc(-c3cccc(NC(=O)c4cn(C)c(=O)n(C)c4=O)c3Cl)c2Cl)cc2c1[C@H](N[C@@H]1CCOC[C@@H]1O)CC2 (single isomer, unassigned) [Compound A-30]
The EC50 of the first is lower: ≤ 10 nM for the first, 100 to 1000 nM for the second.

First: COc1nc(-c2cccc(-c3cccc(NC(=O)c4cn(C)c(=O)n(C)c4=O)c3Cl)c2C)cc2c1[C@H](N[C@@H]1CCOC[C@@H]1O)CC2 (single isomer, unassigned) [Compound A-31]
Second: COc1nc(-c2cccc(-c3cccc(NC(=O)c4cn(C)c(=O)n(C)c4=O)c3Cl)c2C)cc2c1[C@@H](N[C@@H]1CCOC[C@@H]1O)CC2 (single isomer, unassigned) [Compound A-39]
The EC50 of the first is higher: 1000 to 10000 nM for the first, ≤ 10 nM for the second.

`COc1nc(-c2cccc(-c3cccc(NC(=O)c4cn(C)c(=O)n(C)c4=O)c3C)c2Cl)cc2c1[C@H](N[C@@H]1CCOC[C@@H]1O)CC2` (single isomer, unassigned) [Compound A-33] and `COc1nc(-c2cccc(-c3cccc(NC(=O)c4cn(C)c(=O)n(C)c4=O)c3C)c2Cl)cc2c1[C@@H](N[C@@H]1CCOC[C@@H]1O)CC2` (single isomer, unassigned) [Compound A-40] cannot be ordered by EC50: ≤ 10 nM for the first, ≤ 10 nM for the second.

`COc1nc(-c2cccc(-c3cccc(NC(=O)c4cn(C)c(=O)n(C)c4=O)c3C)c2C)cc2c1[C@@H](N[C@@H]1CCOC[C@@H]1O)CC2` (single isomer, unassigned) [Compound A-41] and `COc1nc(-c2cccc(-c3cccc(NC(=O)c4cn(C)c(=O)n(C)c4=O)c3C)c2F)cc2c1[C@@H](N[C@@H]1CCOC[C@@H]1O)CC2` (single isomer, unassigned) [Compound A-42] cannot be ordered by EC50: ≤ 10 nM for the first, 10 to 100 nM for the second.

`COc1nc(-c2cccc(-c3cccc(NC(=O)c4cn(C)c(=O)n(C)c4=O)c3C)c2C)cc2c1[C@@H](NC[C@@H]1CCC(=O)N1)CO2` (single isomer, unassigned) [Compound A-49] and `COc1nc(-c2cccc(-c3cccc(NC(=O)c4cn(C)c(=O)n(C)c4=O)c3C)c2C)cc2c1[C@H](N1CC(O)C1)CC2` (single isomer, unassigned) [Compound A-80] fall in the same range of EC50: 10 to 100 nM for the first, 10 to 100 nM for the second.

`COc1nc(-c2cccc(-c3cccc(NC(=O)c4cn(C)c(=O)n(C)c4=O)c3C)c2Cl)cc2c1[C@H](N1CC3(CN(C(C)=O)C3)C1)CC2` (single isomer, unassigned) [Compound A-72] and `COc1nc(-c2cccc(-c3cccc(NC(=O)c4nn(C)c(=O)n(C)c4=O)c3C)c2C)cc2c1[C@@H](N[C@@H]1CCOC[C@@H]1O)CC2` (single isomer, unassigned) [Compound A-75] fall in the same range of EC50: 10 to 100 nM for the first, 10 to 100 nM for the second.

In the case of `COc1nc(-c2cccc(-c3cc(F)cc(NC(=O)c4nn(C)c(=O)n(C)c4=O)c3C)c2C)cc2c1[C@@H](N[C@@H]1CCOC[C@@H]1O)CC2` (single isomer, unassigned) [Compound A-74], the EC50 is reported as 10 to 100 nM.
